Literature values in US20070225337A1, “Novel Co-Precipitate of Amorphous Rosiglitazone” (SANDOZ AG, priority 2004, published 2007).

Tests used:
[1] = compared with the corresponding free base

- stability in the solid form: good stability in the solid form
Compound: CN(CCOc1ccc(CC2SC(=O)NC2=O)cc1)c1ccccn1.O=C(O)/C=C\C(=O)O (centres unmarked) [Rosiglitazone maleate, 5-[4-[2-[N-methyl-N-(2-pyridyl)amino]ethoxy]benzyl]thiazolidine-2,4-dione maleate]
- solubility in water [1]: significantly more soluble in water than the corresponding free base
